Measurements taken from US8236756B2, “Prodrugs cleavable by CD26” (Consejo Superior de Investigaciones Clentificas (CSIC), priority 2003, dated 2012).

Key:
[1] = Conversion of prodrugs to parent compound by bovine serum diluted in PBS; type: in vitro ADME; conditions: 2% BS in PBS
Method: (§1) Human and bovine serum were incubated for 3 hr, 6 hr and/or 24 hr at 37° C. in the presence of 50 μM CAM-405. The sera were diluted in PBS at a final concentration of 0.5, 1, 2.5 or 5%. […] The longer the incubation time, and the higher the serum concentration used, the faster the conversion of CAM-405 to CAM-212 occurred (FIG. 4). As also noted for CD26, HS- and BS-catalysed reaction slowed down in function of time, and was not linearly proportional with serum concentration (FIG. 4). These findings provide again evidence for a pronounced feed-back inhibition of dipeptidyl-peptidase activity in human and bovine serum by the released Val-Pro dipeptide. HS was more efficient in converting CAM-405 to CAM-212 than BS (FIG. 4). Since 1% HS is able to hydrolyse ˜20% of 50 μM CAM-405 within 3 hrs of incubation, it could be calculated that undiluted serum would have been able to convert this prodrug amount to its parent compound at a hundred fold higher speed, that is, within 1.8 min, provided that no feed-back inhibition would have occurred (as expected in the intact organism where release of Pro-Val would immediately result in disappearance from the plasma due to several mechanisms including organ uptake, renal excretion, etc.).
(§2) Ten percent BS or HS converted 40 to 70% of PI-2 to PI-1 in one hour (FIG. 10). Two percent BS and HS converted PI-2 to PI-1 by 8% and 25%, respectively. After 4 hrs, 35% and 95% of compound was hydrolyzed by BS and HS, respectively (FIG. 11).
(§3) The TSAO derivatives depicted in FIG. 1 can be synthesised as described below. GlyPro-pNA (GP-pNA), Diprotin A and Val-Pro were purchased from Sigma-Aldrich (Bornem, Belgium). CD26 was purified as described before [De Meester et al. J. Immunol. Methods (1996), 189: 99-105]. Foetal bovine serum (FBS) was obtained from Integro (Dieren, The Netherlands). Human serum represented a pooled serum that was derived from 10 healthy volunteers (blood donors). Human lymphocyte CEM cells were derived from the ATCC (Rockville, Md.).

[2] = Conversion of prodrugs to parent compound by human serum diluted in PBS; type: in vitro ADME; conditions: 2% HS in PBS
Method: as §1
Only a very limited amount of NAP-TSAO (but not D-Pro-NAP-TSAO) had been detected (FIG. 6).
as §2, §3

[3] = Inhibition of GP-pNA conversion to pNA by 2% human serum; type: biochemical; conditions: 2% HS in PBS
[4] = Inhibition of GP-pNA conversion to pNA by 2% bovine serum; type: biochemical; conditions: 2% BS in PBS
[5] = target: T1, CD26 (Homo sapiens, UniProt P27487); assay: Inhibition of CD26-catalysed conversion of GP-pNA to GP+pNA (pNA release, absorption at 400 nm); type: biochemical; conditions: 50 μM GP-pNA
T1 construct: made in house
Method: The CD26 catalytic reaction was measured by recording the increase of absorption caused by pNA release at 400 nm.
To reveal whether CD26 recognizes such synthetic di/tripeptide derivatives of lipophilic nucleoside analogues as a substrate, 50 μM CAM-405 or CAM-431 was exposed to 5.7 mUnits of purified CD26, and the conversion of CAM-405 or CAM-431 to respectively CAM-212 or CAM-403 (Val-NAP-TSAO) was recorded in function of incubation time by HPLC analysis. […] The inhibitory activity of any dipeptide can be evaluated by the above mentioned assay.

[6] = target: T2, purified CD26 (Homo sapiens, UniProt P27487); assay: Conversion of peptide prodrugs to parent compound by purified CD26 (HPLC); type: biochemical; conditions: purified CD26; within 60 min
T2 construct: made in house
Method in brief: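 Peptide prodrugs of lipophilic nucleoside analogues were incubated with purified human CD26 at a final concentration of 1.5 milliUnits in PBS at pH 7.5, 37° C, in a 400 μl reaction started by enzyme addition. Samples were mixed with cold methanol to precipitate protein, centrifuged, and the supernatants analysed by reverse-phase HPLC to quantify conversion to the parent compound.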

[7] = time not restated (one hour in the sentence before)

T1 sequence (P27487 whole entry): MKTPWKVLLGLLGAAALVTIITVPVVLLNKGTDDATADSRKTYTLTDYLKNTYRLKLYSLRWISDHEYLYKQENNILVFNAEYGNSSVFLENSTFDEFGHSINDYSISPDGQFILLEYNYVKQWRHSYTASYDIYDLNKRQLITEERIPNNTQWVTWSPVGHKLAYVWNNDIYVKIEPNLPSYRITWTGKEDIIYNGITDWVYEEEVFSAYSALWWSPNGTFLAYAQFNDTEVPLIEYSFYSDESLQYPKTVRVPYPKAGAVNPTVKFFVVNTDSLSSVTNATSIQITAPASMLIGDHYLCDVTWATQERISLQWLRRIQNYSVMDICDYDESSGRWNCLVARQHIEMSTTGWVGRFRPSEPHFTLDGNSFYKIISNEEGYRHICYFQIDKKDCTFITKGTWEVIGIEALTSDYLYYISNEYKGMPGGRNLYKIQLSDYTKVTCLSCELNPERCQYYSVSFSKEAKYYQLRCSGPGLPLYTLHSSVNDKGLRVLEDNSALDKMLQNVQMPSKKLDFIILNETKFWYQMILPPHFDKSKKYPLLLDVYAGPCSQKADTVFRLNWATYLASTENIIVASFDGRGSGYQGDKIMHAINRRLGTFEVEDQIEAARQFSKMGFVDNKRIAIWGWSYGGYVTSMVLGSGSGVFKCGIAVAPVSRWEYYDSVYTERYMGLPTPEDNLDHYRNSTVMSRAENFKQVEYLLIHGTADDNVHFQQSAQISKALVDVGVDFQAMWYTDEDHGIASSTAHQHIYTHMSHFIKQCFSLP
T2 sequence (P27487 whole entry): as above

CC(C)CN(C[C@@H](O)[C@H](Cc1ccccc1)NC(=O)O[C@H]1CO[C@H]2OCC[C@H]21)S(=O)(=O)c1ccc(CNC(=O)[C@@H]2CCCN2C(=O)[C@@H](N)C(C)C)cc1 [Val-Pro-PI 1]
Compound hydrolyzed by BS after 4 hrs ([1]; 4 hrs): 35% | Conversion to PI 1 by two percent BS [1, 7]: 8% | Compound hydrolyzed by HS after 4 hrs ([2]; 4 hrs): 95% | Conversion to PI 1 by two percent HS [2, 7]: 25% | Inhibition of HS-catalysed GP-pNA conversion to pNA, in words [3]: competitively inhibited | Inhibition of GP-pNA conversion to pNA by two percent BS, in words [4]: even more efficiently inhibited | Inhibition of release of pNA from GP-pNA at 20 μM, in words ([5]; 20 μM): could inhibit | Competition with GP-pNA for CD26 at 100 μM, in words ([5]; 100 μM): efficiently competed | Conversion of Val-Pro-PI 1 (PI-2) to PI 1 by purified CD26 within 60 min, in words [6]: completely converted
